From patent publication US8637702B2, “Derivatives of N-hydroxybenzamide for treating HIV infections” (Italfarmaco S.p.A., priority 2009, dated 2014) come the findings set out here.

One assay deals with T1, HDAC8 (Homo sapiens, UniProt Q9BY41).
T1 sequence (Q9BY41 1-377): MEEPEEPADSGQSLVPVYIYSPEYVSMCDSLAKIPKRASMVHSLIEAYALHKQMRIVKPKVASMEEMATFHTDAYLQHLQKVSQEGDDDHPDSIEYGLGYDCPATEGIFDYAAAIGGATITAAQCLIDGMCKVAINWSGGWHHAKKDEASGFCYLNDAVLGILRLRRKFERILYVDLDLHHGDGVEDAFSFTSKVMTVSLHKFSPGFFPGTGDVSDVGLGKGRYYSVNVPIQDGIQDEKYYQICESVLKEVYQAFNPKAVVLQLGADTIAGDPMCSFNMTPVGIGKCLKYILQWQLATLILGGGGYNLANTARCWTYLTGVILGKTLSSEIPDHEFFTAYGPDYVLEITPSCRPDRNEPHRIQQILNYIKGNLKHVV
As to the kind of experiment: Inhibition of histone deacetylase isoforms, HDAC8.

A further assay deals with T2, HDAC7 (Homo sapiens, UniProt Q8WUI4).
T2 sequence (Q8WUI4 1-952): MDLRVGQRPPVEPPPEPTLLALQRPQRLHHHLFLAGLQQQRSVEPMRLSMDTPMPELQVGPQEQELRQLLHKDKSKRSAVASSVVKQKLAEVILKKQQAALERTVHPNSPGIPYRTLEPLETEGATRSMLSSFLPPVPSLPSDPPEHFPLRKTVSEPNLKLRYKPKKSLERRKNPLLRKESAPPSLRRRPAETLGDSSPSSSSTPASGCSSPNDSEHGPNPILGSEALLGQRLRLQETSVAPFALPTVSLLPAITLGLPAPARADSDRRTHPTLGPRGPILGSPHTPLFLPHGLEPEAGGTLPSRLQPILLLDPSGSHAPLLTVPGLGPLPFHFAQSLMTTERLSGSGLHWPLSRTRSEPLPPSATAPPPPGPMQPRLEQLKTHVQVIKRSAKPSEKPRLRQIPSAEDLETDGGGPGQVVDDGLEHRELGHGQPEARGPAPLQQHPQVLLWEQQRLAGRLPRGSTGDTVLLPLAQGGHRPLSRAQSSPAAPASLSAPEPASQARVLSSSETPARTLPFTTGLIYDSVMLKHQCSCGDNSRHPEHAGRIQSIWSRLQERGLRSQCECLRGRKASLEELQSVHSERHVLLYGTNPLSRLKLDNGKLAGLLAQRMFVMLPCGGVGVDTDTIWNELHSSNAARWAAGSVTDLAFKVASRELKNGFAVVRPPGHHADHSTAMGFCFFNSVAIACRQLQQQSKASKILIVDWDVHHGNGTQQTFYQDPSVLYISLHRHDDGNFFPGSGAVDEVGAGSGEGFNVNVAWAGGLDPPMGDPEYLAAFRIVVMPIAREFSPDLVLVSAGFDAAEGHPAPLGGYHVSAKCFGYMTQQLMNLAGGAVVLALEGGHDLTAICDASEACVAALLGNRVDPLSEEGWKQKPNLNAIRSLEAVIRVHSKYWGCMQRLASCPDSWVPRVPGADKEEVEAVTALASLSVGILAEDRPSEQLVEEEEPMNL
Kind of assay: Inhibition of histone deacetylase isoforms, HDAC7.

A further assay has as its target HDAC3 (Homo sapiens, UniProt O15379). Kind of assay: Inhibition of histone deacetylase isoforms, HDAC3.
Another assay addresses T3, HDAC11 (Homo sapiens, UniProt Q96DB2).
T3 sequence (Q96DB2 1-347): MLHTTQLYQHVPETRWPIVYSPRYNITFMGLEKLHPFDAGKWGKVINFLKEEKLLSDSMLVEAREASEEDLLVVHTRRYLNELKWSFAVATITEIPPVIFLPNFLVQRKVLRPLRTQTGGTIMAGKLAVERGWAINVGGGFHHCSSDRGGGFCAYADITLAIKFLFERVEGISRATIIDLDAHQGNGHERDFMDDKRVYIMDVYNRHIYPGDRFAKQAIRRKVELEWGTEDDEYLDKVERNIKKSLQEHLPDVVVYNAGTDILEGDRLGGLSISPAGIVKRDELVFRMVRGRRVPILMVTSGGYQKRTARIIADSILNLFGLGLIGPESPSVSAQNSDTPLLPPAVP
As to the kind of experiment: Inhibition of histone deacetylase isoforms, HDAC11.

The test system of assay [1] is HIV-1 expression in ACH-2 cells. As to the kind of experiment: Induction of the HIV-1 expression in the ACH-2 cell line (p24). Conditions: 24 hours. It counts as cell-based. Here is the method:
ACH2 cells were obtained through AIDS Research and Reference Reagent Program, Division of AIDS, National Institute of Allergy and Infectious Diseases, National Institutes of Health, Bethesda, Md. The cells were cultured in flasks, washed in RPMI and resuspended in RPMI/10% FCS at a concentration of 2×10^6 cells/mL. […] After 24 hours of incubation at 37° C./5% CO2, 50 μL of supernatant were removed for the cytotoxicity assay of the lactate dehydrogenase (LDH) and Triton-X-100 (0.5% vol/vol final concentration) were added to each culture. The p24 assays of the lysates were performed immediately.
p24 was measured using specific antibodies immobilized on magnetic beads as previously described [Nold M. F. et al. J. Immunol. […] The levels of p24 for each experiment without HDAC inhibitors were fixed at 1.0 and the increase values by the number of times for each experiment and each analogous were calculated.

Chain of HDAC3 (O15379 whole entry, canonical isoform): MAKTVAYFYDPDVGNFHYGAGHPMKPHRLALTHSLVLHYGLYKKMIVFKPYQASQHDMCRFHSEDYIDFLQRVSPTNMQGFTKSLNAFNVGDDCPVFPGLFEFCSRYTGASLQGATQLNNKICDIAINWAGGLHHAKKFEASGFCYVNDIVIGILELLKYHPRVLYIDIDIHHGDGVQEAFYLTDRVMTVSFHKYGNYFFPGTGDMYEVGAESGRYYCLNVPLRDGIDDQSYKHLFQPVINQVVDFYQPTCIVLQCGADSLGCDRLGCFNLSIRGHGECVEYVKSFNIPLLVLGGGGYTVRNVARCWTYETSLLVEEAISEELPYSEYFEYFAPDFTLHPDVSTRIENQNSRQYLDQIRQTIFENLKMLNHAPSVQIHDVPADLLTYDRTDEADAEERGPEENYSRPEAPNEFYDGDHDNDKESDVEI
Chain of HDAC3 (Q9Y618 395-489 partner limits assumed): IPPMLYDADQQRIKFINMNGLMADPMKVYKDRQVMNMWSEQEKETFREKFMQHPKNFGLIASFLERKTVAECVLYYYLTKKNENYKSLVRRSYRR
Description for HDAC11: Recombinant human enzymes were acquired from BPS Biosciences (CA, USA). Isoforms of Class I HDAC1, 2, 3; HDAC6, 10 of Class IIb and Class IV HDAC11 were tested using the Fluor-de-Lys fluorogenic synthetic substrate (Enzo Life Sciences, Plymouth Meeting, Pa.). […] Each inhibitor was dissolved in DMSO and then further diluted in an assay buffer. […] The assays were performed by pre-incubating each enzyme with the inhibitors for 15 minutes at 37° C. The reaction was started by adding the substrate at 37° C. and allowed to proceed for 60 minutes. The fluorescent signal was generated by adding 50 μL of a twice concentrated developer solution 2 (Enzo) containing trichostatin A 4 μM.
Description for HDAC3: (§1) Recombinant human enzymes were acquired from BPS Biosciences (CA, USA). Isoforms of Class I HDAC1, 2, 3; HDAC6, 10 of Class IIb and Class IV HDAC11 were tested using the Fluor-de-Lys fluorogenic synthetic substrate (Enzo Life Sciences, Plymouth Meeting, Pa.). […] The recombinant human HDAC8 assay was performed using HDAC8 Fluorimetric Drug Discovery Kit (Enzo) according to the manufacturer instructions. Each inhibitor was dissolved in DMSO and then further diluted in an assay buffer. […] The assays were performed by pre-incubating each enzyme with the inhibitors for 15 minutes at 37° C. The reaction was started by adding the substrate at 37° C. and allowed to proceed for 60 minutes. The fluorescent signal was generated by adding 50 μL of a twice concentrated developer solution 2 (Enzo) containing trichostatin A 4 μM.
Description for HDAC7: as §1
Description for HDAC8: as §1

Usually IC50 stands for the concentration that inhibits the measured activity by half. Read a high IC50 as weaker potency in that assay. On to `O=C(NO)c1ccc(NC(=O)[C@H](Cc2ccc3ccccc3c2)NC(=O)c2ccccc2)cc1` [Compound g, 4-(2(S)-benzoylamino-3-naphtalen-2-yl-propionylamino)-N-hydroxy-benzamide], for which the IC50 came to 0.492 µM against HDAC8, 2.02 µM against HDAC7, 0.246 µM against HDAC3 and 0.441 µM at HDAC11. In addition, the “increase of the number of times in the level of p24 with respect to control” value is 2 times in assay [1] (31 nM); 3 times in assay [1] (63 nM); 10 times in assay [1] (125 nM); 27 times in assay [1] (250 nM); 30 times in assay [1] (250 nM, listed as compound g).
For `O=C(NO)c1ccc(NC(=O)[C@H](Cc2ccc3ccccc3c2)NC(=O)c2ccc3c(c2)OCO3)cc1` [Compound t, benzo[1,3]dioxole-5-carboxylic acid [1(S)-(4-hydroxycarbamoyl-phenylcarbamoyl)-2-naphtalen-2-yl-ethy]-amide], the IC50 against HDAC8 stood at 0.162 µM; against HDAC7, 8.62 µM; against HDAC3, 0.107 µM; against HDAC11, 0.336 µM. In addition, the “increase of the number of times in the level of p24 with respect to control” value is listed as 1 times in assay [1] (31 nM); 2 times in assay [1] (63 nM); 10 times in assay [1] (125 nM); 33 times in assay [1] (250 nM); 30 times in assay [1] (250 nM, listed as compound t).
